Laboratory results from ChEMBL document CHEMBL2331176, “1,5-Diphenylpenta-2,4-dien-1-ones as potent and selective monoamine oxidase-B inhibitors” (Eur J Med Chem, 2013).

Legend:
[1] = target: T1, Amine oxidase [flavin-containing] A (Homo sapiens, UniProt P21397); assay: Inhibition of recombinant human MAO-A expressed in baculovirus infected BT1-TN-5B1-4 cells assessed as inhibition of production of hydrogen peroxide from p-tyramine at 100 uM after 15 mins by Amplex Red assay; details: 0.25 h; for inhibition (INH): 100 µM
T1 sequence (P21397 whole entry): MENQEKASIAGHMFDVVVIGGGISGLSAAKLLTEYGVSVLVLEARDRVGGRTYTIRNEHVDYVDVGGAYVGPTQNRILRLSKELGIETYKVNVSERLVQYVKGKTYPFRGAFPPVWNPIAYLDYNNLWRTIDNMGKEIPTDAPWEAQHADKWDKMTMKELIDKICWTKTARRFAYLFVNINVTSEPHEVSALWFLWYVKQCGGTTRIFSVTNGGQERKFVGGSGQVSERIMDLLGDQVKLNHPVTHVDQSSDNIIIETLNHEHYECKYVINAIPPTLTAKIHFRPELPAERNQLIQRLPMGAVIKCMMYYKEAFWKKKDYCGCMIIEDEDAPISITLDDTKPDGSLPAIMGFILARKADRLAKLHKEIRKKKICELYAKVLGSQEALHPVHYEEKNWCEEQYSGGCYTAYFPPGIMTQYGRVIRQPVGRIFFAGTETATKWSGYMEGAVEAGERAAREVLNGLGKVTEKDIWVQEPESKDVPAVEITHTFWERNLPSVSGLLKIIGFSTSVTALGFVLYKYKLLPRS

[2] = target: T2, Amine oxidase [flavin-containing] B (Homo sapiens, UniProt P27338); assay: Inhibition of recombinant human MAO-B expressed in baculovirus infected BT1-TN-5B1-4 cells assessed as inhibition of production of hydrogen peroxide from p-tyramine at 100 uM after 15 mins by Amplex Red assay; details: 0.25 h; for inhibition (INH): 100 µM
T2 sequence (P27338 whole entry): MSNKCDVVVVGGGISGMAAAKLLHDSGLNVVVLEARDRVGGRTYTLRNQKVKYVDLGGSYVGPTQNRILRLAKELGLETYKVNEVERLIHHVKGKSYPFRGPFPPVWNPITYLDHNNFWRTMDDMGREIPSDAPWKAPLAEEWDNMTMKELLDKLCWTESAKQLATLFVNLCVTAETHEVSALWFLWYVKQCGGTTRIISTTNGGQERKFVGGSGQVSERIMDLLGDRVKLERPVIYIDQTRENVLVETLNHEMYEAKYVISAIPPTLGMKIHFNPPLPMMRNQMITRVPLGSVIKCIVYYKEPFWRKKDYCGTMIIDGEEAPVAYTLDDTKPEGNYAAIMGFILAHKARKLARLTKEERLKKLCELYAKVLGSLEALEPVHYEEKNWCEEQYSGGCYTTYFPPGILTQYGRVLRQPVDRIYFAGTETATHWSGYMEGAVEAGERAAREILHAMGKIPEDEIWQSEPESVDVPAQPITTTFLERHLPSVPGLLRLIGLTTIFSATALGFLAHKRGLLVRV

[3] = target: T2, Amine oxidase [flavin-containing] B; assay: biochemical; type: cell-based
Description: Inhibition of recombinant human MAO-B expressed in baculovirus infected BT1-TN-5B1-4 cells assessed as inhibition of production of hydrogen peroxide from p-tyramine after 15 mins by Amplex Red assay

Homo sapiens = species on record: Homo sapiens; assay: Selectivity index, ratio of IC50 for recombinant human MAO-A expressed in baculovirus infected BT1-TN-5B1-4 cells to recombinant human MAO-B expressed in baculovirus infected BT1-TN-5B1-4 cells
[4] = target: T1, Amine oxidase [flavin-containing] A; assay: Inhibition of recombinant human MAO-A expressed in baculovirus infected BT1-TN-5B1-4 cells assessed as inhibition of production of hydrogen peroxide from p-tyramine after 15 mins by Amplex Red assay
[5] = target: T2, Amine oxidase [flavin-containing] B; assay: Inhibition of recombinant human MAO-B expressed in baculovirus infected BT1-TN-5B1-4 cells assessed as inhibition of production of hydrogen peroxide from p-tyramine at 1 mM after 15 mins by Amplex Red assay; details: 0.25 h, 1000 µM

SMILES	inhibition (INH) [1]	IC50 [3] [nM]	Ratio IC50 (Homo sapiens)	other results
O=C(/C=C(O)/C=C/c1ccc(Cl)cc1)c1cc(Cl)ccc1O	Not Active			inhibition (INH) [2]: Not Active
COc1ccc(/C=C/C=C/C(=O)c2cc(F)ccc2O)cc1	Not Active	726	> 138	
COc1ccc(/C=C/C=C/C(=O)c2cc(Cl)ccc2O)cc1	Not Active	153	> 653	
COc1cc(/C=C/C=C/C(=O)c2c(O)cccc2O)ccc1O		969	1.5	IC50 [4]: 1430 nM
O=C(/C=C(O)/C=C/c1ccc(Cl)cc1)c1ccccc1O	Not Active			inhibition at 100 µM [2]: 40%
O=C(/C=C/C=C/c1ccccc1)c1cc(Cl)ccc1O	Not Active	54.8	> 1830	
O=C(/C=C/c1ccccc1)c1cc(F)ccc1O		668	> 150	inhibition at 100 µM [1]: 40%
O=C(/C=C(O)/C=C/c1ccc(O)c(O)c1)c1ccccc1O		654	0.66	IC50 [4]: 431 nM
COc1ccc(/C=C/C(O)=C/C(=O)c2ccccc2O)cc1	Not Active			inhibition at 100 µM [2]: 40%
O=C(/C=C(O)/C=C/c1ccccc1)c1ccccc1O	Not Active	1160	> 86	
COc1cc(/C=C/C=C/C(=O)c2c(O)cccc2OC)ccc1O		486	2.1	IC50 [4]: 1030 nM
COc1ccc(/C=C/C=C/C(=O)c2c(O)cccc2O)cc1OC		1450	17	IC50 [4]: 25200 nM
O=C(/C=C/C=C/c1ccc([N+](=O)[O-])cc1)c1ccccc1O	Not Active	160	> 624	
COc1ccc(/C=C/C=C/C(=O)c2ccccc2O)cc1		1810	> 55	inhibition at 100 µM [1]: 40%
COc1ccc(/C=C/C(O)=C/C(=O)c2c(O)cccc2OC)cc1OC				inhibition at 100 µM [1]: 40%; inhibition (INH) [2]: Not Active
O=C(/C=C(O)/C=C/c1ccccc1)c1cc(F)ccc1O	Not Active	50.4	> 1980	

SMILES	inhibition (INH) [1]	IC50 [3] [nM]	Ratio IC50 (Homo sapiens)	other results
COc1ccc(/C=C/C=C/C(=O)c2c(O)cccc2OC)cc1OC				inhibition at 100 µM [1]: 40%; inhibition (INH) [2]: Not Active
O=C(/C=C(O)/C=C/c1ccc(O)cc1)c1ccccc1O		26.5	57	IC50 [4]: 1520 nM
O=C(/C=C/C=C/c1ccc(Cl)cc1)c1ccc(O)cc1O		11.3	1350	IC50 [4]: 15400 nM
O=C(/C=C/C=C/c1ccc(Cl)cc1)c1cc(Cl)ccc1O	Not Active	1460	> 68	
O=C(/C=C/C=C/c1ccc(Cl)cc1)c1ccccc1O		860	44	IC50 [4]: 37700 nM
O=C(/C=C/C=C/c1ccccc1)c1ccccc1O	Not Active	106	> 948	
COc1ccc(C(=O)/C=C/C=C/c2ccc(Cl)cc2)c(O)c1	Not Active	4.51	> 22200	
O=C(/C=C(O)/C=C/c1ccc([N+](=O)[O-])cc1)c1ccccc1O	Not Active	2670	> 37	
O=C(/C=C/C=C/c1ccc([N+](=O)[O-])cc1)c1cc(Cl)ccc1O	Not Active	1080	> 93	
COc1cc(/C=C/C=C/C(=O)c2ccccc2O)ccc1O		502	3.1	IC50 [4]: 1560 nM
O=C(/C=C/C=C/c1ccccc1)c1cc(F)ccc1O	Not Active	75.8	> 1320	
COc1ccc(/C=C/C(O)=C/C(=O)c2ccccc2O)cc1OC	Not Active			inhibition (INH) [2]: Not Active
Cc1ccc(/C=C/C(O)=C/C(=O)c2ccccc2O)cc1	Not Active	3770	> 27	
COc1ccc(/C=C/C=C/C(=O)c2ccccc2O)cc1OC		14600	> 6.8	inhibition at 100 µM [1]: 40%
COc1cc(/C=C/C(O)=C/C(=O)c2c(O)cccc2OC)ccc1O		1680	2.2	IC50 [4]: 3760 nM
O=C(NCCN1CCOCC1)c1ccc(Cl)cc1 [MOCLOBEMIDE]				inhibition (INH) [5]: Not Active
